Laboratory results: patent US20230323420A1, “PERFUSION MEDIUM” (Boehringer Ingelheim International GmbH, priority 2017, published 2023)

Experiments:
[1] = system: CHO cultures; conditions: cited from earlier work
[2] = system: CHO-DG44 cells; assay: Cell cycle analysis of perfusion bioreactor culture (Example 2); type: cell-based, Chinese hamster; conditions: 150 μM and 200 μM retinyl acetate, 1.6 mM ferric citrate, compared to control, data not shown
Protocol: Samples were taken near-daily for: VCD and viability (Vi-Cell, Beckman-Coulter), osmolality (Advanced Instrument Inc), pH, CO2, and O2 (RapidLab 1240 BGA, Siemens), and metabolite readings (Cedex BioHT, Roche). DeltaV was used to control and Finesse TruBio software was used to record and monitor cell bleed, permeate, and media pump rates. Cell samples were taken throughout the experiment and stored at −20° C. in 70% EtOH after treatment with Accumax (Innovative Cell Technologies) for later cell cycle analysis using propidium iodide stain with RNase (BD Biosciences) on a Guava easyCyte flow cytometer (EMD Millipore).

[3] = system: CHO DG44 cells expressing a recombinant monoclonal IgG1 antibody; assay: High density perfusion culture in bioreactors, 350 μM ferric citrate (Example 3); type: cell-based, Chinese hamster
Protocol: A high density perfusion culture of CHO DG44 cells expressing a recombinant monoclonal IgG1 antibody was treated with low iron (Fe) and vitamin A (retinyl acetate) to assess the effect on cell proliferation, and the cell bleed. A bench-scale experiment was performed essentially as described above for Example 2. During the growth phase (d0-d10 post-inoculation) there was no cell bleed, allowing the viable cell density (VCD) to reach desired level. On day 8, ferric citrate (Sigma-Aldrich; CAS 3522-50-7) was added to the perfusion media at a concentration of 350 μM. Once optimal cell density was reached on day 10, cell bleed was initiated to maintain constant VCD (steady state). The calculation governing the cell bleed rate was based on maintaining the Incyte biomass capacitance probe value (Hamilton company) which corresponded to the target VCD.
On day 25 day, retinyl acetate (Sigma-Aldrich, CAS 127-47-9) was introduced to one of the bioreactors, with one bioreactor acting as control with no retinyl acetate. Retinyl acetate was dissolved in absolute ethanol and sterile-filtered with a 0.2 μm filter to make a sterile stock solution of 152 mM before addition to media bags for final concentrations of 100 μM retinyl acetate. Retinyl acetate was then added to the bioreactor on day 25. The bag of new treatment media was attached to the media inlet line of the bioreactors and in order to ensure an instantaneous achievement of target retinyl acetate concentration within the vessels (as opposed to the gradual increase which would occur via introduction through the perfusion medium), a bolus addition of 1.3 mL retinyl acetate stock solution was added directly to the treatment bioreactor via injection through a sterile addition line. Samples were taken and analyzed as explained for Example 2.

[4] = system: Chinese hamster ovary (CHO) DG44 cells expressing a recombinant monoclonal IgG1 antibody; assay: Deep well plate model of perfusion (small scale culture): viable cell density, viability, titer; type: cell-based
[5] = system: Chinese hamster ovary (CHO) DG44 cells expressing a recombinant monoclonal IgG1 antibody; assay: as above; type: cell-based; remark: listed apart in the source
Protocol: Axygen 24 well pre-sterilized deep-well plates (Neta Scientific Inc, Hainesport, NJ) were used as a scale-down model of perfusion. A starting cell density of 20×10^6 cells/mL (3 mL per well) was targeted to simulate the high cell density growth phase of perfusion. Chinese hamster ovary (CHO) DG44 cells expressing a recombinant monoclonal IgG1 antibody were grown in proprietary chemically defined, serum-free perfusion media at 33° C. with 5% CO2, 80% humidity, and 200 rpm shaking speed in an incubator with a 5.0 cm orbit diameter for 4 or 8 days. A 0.1 mL sample was taken for cell count daily prior to media exchange. Medium exchanges were performed daily by centrifuging the plate at 1200 rpm for 5 minutes, removing 2 mL supernatant, and resuspending cells in 2.1 mL fresh, pre-warmed media at 37° C. (in early days, this equates to a ⅔ volume exchange, whereas in later days the cell pellet grows such that 2 mL is nearly the entire liquid volume, equating to a 1 VVD exchange). Supernatant was saved to perform process analytics.
Retinyl acetate was tested in concentrations ranging from 5 μM to 600 μM in proprietary chemically defined, serum-free perfusion medium with 230 μM or 3.1 mM ferric citrate. A 152 mM stock solution of retinyl acetate was prepared by dissolving 50 mg/mL retinyl acetate powder to prepare a 152 mM stock (Sigma-Aldrich; CAS 127-47-9) in absolute ethanol, or 75 mg/mL retinyl acetate for 228 mM stock, for each experimental run; after thorough mixing, the solutions were sterile-filtered with 0.22 μm Steriflips (EMD Millipore). This stock was diluted down further with perfusion medium to provide a working stock. Media aliquot concentrations were 30% higher than the targeted final concentration in each treatment to compensate for residual media left in the well and cell pellet volume. The media were prepared in proprietary chemically defined, serum-free media (either 230 μM or 3.1 mM Fe background) as shown in Table 2. Control condition had no retinyl acetate supplement; ethanol control added the solvent with no retinyl acetate at the level equivalent to the greatest amount for each experiment. These media aliquots were used in the daily media exchanges as described above.
Viability and viable cell density were measured by Vi-CELL Cell Counter using the Trypan blue dye exclusion method (Beckman Coulter Life Sciences, Indianapolis, IN). Titer, metabolites, and lactate dehydrogenase (LDH) levels were measured using a Cedex BioHT (Roche Diagnostics GmbH, Mannheim, Germany). These titer measurements had been previously verified to be in agreement with in house HPLC Protein A methods. Osmolality was measured with a 2020 Multi-Sample Micro Osmometer (Advanced Instruments, Inc, Norwood, MA) based on freezing point depression.
A small scale cell culture using CHO DG44 cells expressing a recombinant monoclonal IgG1 antibody was treated with ferric citrate and retinyl acetate at different concentrations to assess the effect on cell viability, essentially as described for the small scale culture in Example 1.

[6] = system: CHO-DG44 cells expressing a recombinant monoclonal IgG1 antibody; assay: High density perfusion culture in 2 L bioreactors, 1.6 mM ferric citrate (Example 2); type: cell-based, Chinese hamster; conditions: for decrease of cell bleed rate: 1.6 mM ferric citrate background media, over 4 days (FIG. 5B)
Protocol: A high density perfusion culture of CHO-DG44 cells expressing a recombinant monoclonal IgG1 antibody was treated with high iron (Fe) and vitamin A (retinyl acetate) to assess the effect on cell proliferation, and by extension, the cell bleed. A bench-scale experiment was performed in three 2 L perfusion bioreactors with 0.2 μm PES hollow fibers (Spectrum Labs) on alternating tangential flow (ATF) at 0.8 L/min flow rate. Bioreactors were maintained at: 37° C., 60% dissolved oxygen, 348 RPM agitation, and a target pH of 7.0 (pH target was not always achieved). A CHO DG44 cell line expressing a monoclonal antibody was inoculated into the bioreactors at approximately 1e6 cells/mL in proprietary chemically defined, serum-free inoculation medium at a 1:4 dilution of conditioned to fresh inoculation media. This culture was grown in batch mode (no flow in or out) for 2 days, at which time perfusion was started with BI's perfusion media (manufactured by SAFC). […] During the growth phase (d0-d10 post-inoculation) there was no cell bleed, allowing the viable cell density (VCD) to reach desired level. On day 8, ferric citrate (Sigma-Aldrich; CAS 3522-50-7) was added to the perfusion medium at a concentration of 1.6 mM, targeting a pH of 6.9. Once optimal cell density was reached on day 10, cell bleed was initiated to maintain constant VCD (steady state). The calculation governing the cell bleed rate was based on maintaining the Incyte biomass capacitance probe value (Hamilton) which corresponded to the target VCD.
After steady state was established for several days, retinyl acetate (Sigma-Aldrich, CAS 127-47-9) was introduced to two of the bioreactors, with one bioreactor acting as control with no retinyl acetate (Table 4). Retinyl acetate was dissolved in absolute ethanol and sterile-filtered with a 0.2 μm filter to make a sterile stock solution of 152 mM before addition to media bags for final concentrations of 50 μM, 100 μM, 150 μM, or 200 μM retinyl acetate (in four respective bags). Each treatment bioreactor then received retinyl acetate at a first concentration between day 15 and 20 (50 μM or 100 μM) and at a second concentration between days 20-24 (150 or 200 μM) as shown in Table 4. On day 15 and 20 for each treatment, the bag of new treatment media was attached to the media inlet line of the bioreactors. […]
Samples were taken near-daily for: VCD and viability (Vi-Cell, Beckman-Coulter), osmolality (Advanced Instrument Inc), pH, CO2, and O2 (RapidLab 1240 BGA, Siemens), and metabolite readings (Cedex BioHT, Roche). […]

[7] = system: Chinese hamster ovary (CHO) DG44 cells; assay: Cell cycle analysis of deep well culture (propidium iodide, flow cytometry); type: cell-based; conditions: 400 μM retinyl acetate, 3.1 mM ferric citrate, cultivation for 7 days; control cells 62.6%
Protocol: Cell cycle analysis was performed on days 1 and 7 of deep well culture. Cells were grown in medium containing 3.1 mM ferric citrate and 400 μM retinyl acetate or control medium and fixed on days 1 and 7 by a wash in cold PBS before suspension in 70% ethanol. Cells were stored at −20° C. until analysis. 1e5 cells per sample were stained with propidium iodide with RNase (BD Biosciences) for DNA content and analyzed by flow cytometry on a Guava easyCyte flow cytometer (EMD Millipore).

[8] = 100 μM retinyl acetate, 350 μM ferric citrate, days 25 to 29 (FIG. 7)

Structure (SMILES): CC1=C(/C=C/C(C)=C/C=C/C(C)=C/CO)C(C)(C)CCC1 [retinol]
- cytotoxicity ([1]; higher retinol concentrations (above 10 to 50 μM)): cytotoxic
- growth and protein synthesis ([1]; retinol 10 to 50 μM): inhibitory effect on growth and protein synthesis

Structure (SMILES): CC(=O)OC/C=C(C)/C=C/C=C(C)/C=C/C1=C(C)CCCC1(C)C [retinyl acetate]
- cell percentage in G0/G1 phase [2]: increase in cell percentage in G0/G1 phase
- cell bleed [3, 8]: markedly decreased
- specific growth rate [3, 8]: markedly decreased
- viability ([3]; 100 μM retinyl acetate, 350 μM ferric citrate, versus 350 μM ferric citrate alone (FIG. 6)): same high viability
- reduction of cell bleed rate ([3]; 100 μM vitamin A, 350 μM ferric citrate background media, over 5 days (FIG. 7A)): approximately 50%
- SGR (specific growth rate) ([4]; 2 μM retinyl acetate, data not shown): no effect on SGR was observed
- specific growth rate ([4]; 350 μM ferric citrate and 200 μM retinyl acetate, data not shown): decrease in specific growth rate
- viability ([4]; Chinese hamster, 5 days, 200 μM): negative effect on viability after 5 days
- viable cell density ([5]; 5 μM to 20 μM retinyl acetate, 3.1 mM ferric citrate (FIG. 1A)): reduced the viable cell density in a dose-dependent manner
- viable cell density ([5]; 40 μM to 100 μM retinyl acetate, 3.1 mM ferric citrate (FIG. 2A)): reduced the viable cell density in a dose-dependent manner
- cell proliferation ([5]; 60 μM to 400 μM retinyl acetate, 3.1 mM ferric citrate, small scale studies): inhibit cell proliferation
- growth / viable cell density ([5]; 200 μM and 400 μM retinyl acetate, 3.1 mM ferric citrate (FIG. 3A)): further inhibited growth resulting in a lower viable cell density
- viable cell density ([5]; 600 μM retinyl acetate, 3.1 mM ferric citrate (FIG. 3A)): sharply declined from about day 2
- effect on viable cell density ([5]; 200-400 μM retinyl acetate, 230 μM ferric citrate, data not shown): present, but less pronounced
- decrease in growth rate ([5]; low ferric citrate (230 μM) versus high ferric citrate (3.1 mM), same retinyl acetate level): less pronounced in low ferric citrate
- cell specific productivity (qp) ([5]; retinyl acetate with 3.1 mM ferric citrate, data not shown): unaffected
- viability ([5]; same retinyl acetate concentrations (200 μM), 3.1 mM ferric citrate (FIG. 8)): unaffected
- bleed flow rate ([6]; 50 μM or 100 μM retinyl acetate, 1.6 mM ferric citrate, days 15 to 20, compared to control (FIG. 5A)): reduced in a dose-dependent manner
- viability ([6]; 50 μM to 200 μM retinyl acetate, 1.6 mM ferric citrate (FIG. 4)): not affected
- decrease of cell bleed rate ([6]; 150 μM vitamin A): approximately 45%
- decrease of cell bleed rate ([6]; 200 μM vitamin A): roughly 70%
- cells in the G0/G1 phase [7]: 86%
